# Biological target: T1, recombinant human TYRO3 (Homo sapiens, UniProt Q06418)
# T1 construct: purchased Invitrogen
# T1 sequence (Q06418 41-890): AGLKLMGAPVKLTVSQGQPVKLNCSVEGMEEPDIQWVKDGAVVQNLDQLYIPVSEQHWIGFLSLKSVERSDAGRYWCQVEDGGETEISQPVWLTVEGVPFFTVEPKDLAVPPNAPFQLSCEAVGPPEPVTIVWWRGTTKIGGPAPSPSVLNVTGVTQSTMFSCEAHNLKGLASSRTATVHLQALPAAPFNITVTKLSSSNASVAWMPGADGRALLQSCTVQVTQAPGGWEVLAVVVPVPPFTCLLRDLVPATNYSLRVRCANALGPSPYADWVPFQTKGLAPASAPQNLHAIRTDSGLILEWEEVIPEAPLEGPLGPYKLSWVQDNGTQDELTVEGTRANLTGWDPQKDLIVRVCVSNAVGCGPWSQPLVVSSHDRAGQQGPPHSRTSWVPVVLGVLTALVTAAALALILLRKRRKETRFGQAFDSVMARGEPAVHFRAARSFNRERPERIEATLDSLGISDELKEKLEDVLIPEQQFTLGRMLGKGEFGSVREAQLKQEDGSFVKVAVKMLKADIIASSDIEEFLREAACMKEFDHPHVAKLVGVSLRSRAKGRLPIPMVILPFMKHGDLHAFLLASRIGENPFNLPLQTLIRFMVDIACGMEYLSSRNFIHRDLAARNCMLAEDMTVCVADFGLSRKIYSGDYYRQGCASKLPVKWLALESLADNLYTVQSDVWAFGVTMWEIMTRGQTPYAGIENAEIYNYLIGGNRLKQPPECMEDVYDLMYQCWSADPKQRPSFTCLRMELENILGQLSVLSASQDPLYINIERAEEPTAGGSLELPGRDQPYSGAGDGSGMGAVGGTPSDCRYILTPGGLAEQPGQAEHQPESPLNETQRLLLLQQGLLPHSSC
# Assay: HTRF KinEASE-TK biochemical potency, TYRO3
# Conditions: 1 nM TYRO3, 700 μM ATP
# Method: Purified recombinant human AXL, TYRO3 and MER proteins were purchased from Invitrogen™. 10 nM AXL, 2 nM TYRO3 or MER were incubated with varying concentrations of compounds in 50 mM HEPES, pH 7.4, 10 mM MgCl2, 0.01% BSA, 1 mM DTT and 2% DMSO in a total volume of 20 μl in a 384-well microplate (Corning™ #3640) at RT for 1 h. The AXL, TYRO3 and MER enzymatic reaction was initiated by transferring 10 μl of enzyme and compound mixture into 10 μl of 1.6 μM TK Substrate-biotin (HTRF® KinEASE-TK kit, Cisbio) and 1400 μM ATP pre-incubated in 50 mM HEPES, pH 7.4, 10 mM MgCl2, 0.01% BSA, 1 mM DTT in a 384-well microplate (Corning™ #3640) at RT, giving the final reaction conditions: 5 nM AXL, 1 nM TYRO3 or MER, 800 nM TK Substrate-biotin and 700 μM ATP in 50 mM HEPES, pH 7.4, 10 mM MgCl2, 0.01% BSA, 1 mM DTT and 1% DMSO with varying concentrations of compounds. Following 2 h incubation at RT, the AXL, TYRO3 and MER enzymatic reaction was stopped by transfer of 10 μl of reaction into 10 μl of detection mix (400 nM Streptavidin-XL665, 200-fold dilution TK Antibody-Cryptate and detection buffer, HTRF® KinEASE-TK kit, Cisbio) in a white 384-well microplate (Perkin Elmer, OptiPlate 384). After 1 h incubation at RT, the plate was put into a plate reader (Evision) to read at 665/620 nm (acceptor/donor) for HTRF. The value of the DMSO blank (MIN inhibition=100% activity) was used as a negative control. The positive control was established by adding 5 μl of enzyme and DMSO mixture into 10 μl of detection mix followed by addition of 5 μl of TK Substrate-biotin and ATP mixture (MAX inhibition=0% activity). To calculate the percent activity, Equation 1 was used. Ratio665/620 is the value at a given compound concentration: […]
row,IC50,SMILES
1,< 100 nM,"O=C1NCCOc2cc(-c3n[nH]c4ncc(-c5ccc6c(c5)CCC(N5CCCC5)CC6)cc34)ccc21 (racemic) [Example 1, 8-{5-[7-(Pyrrolidin-1-yl)-6,7,8,9-tetrahydro-5H-benzo[7]annulen-2-yl]-1H-pyrazolo[3,4-b]pyridin-3-yl}-2,3,4,5-tetrahydro-1,4-benzoxazepin-5-one]"
2,< 100 nM,"O=C1NCCOc2cc(-c3n[nH]c4ncc(-c5ccc6c(c5)CC[C@H](N5CCCC5)CC6)cc34)ccc21 (single isomer, unassigned) [Example 56]"
3,< 100 nM,"O=C1NCCOc2cc(-c3n[nH]c4ncc(-c5ccc6c(c5)CC[C@@H](N5CCCC5)CC6)cc34)ccc21 (single isomer, unassigned) [Example 57]"
4,< 100 nM,"O=C1NCCOc2cc(-c3n[nH]c4ncc(-c5ccc6c(c5)CCC(N5CCCC5)C6)cc34)ccc21 (stereo not drawn) [Example 2, 8-{5-[6-(Pyrrolidin-1-yl)-5,6,7,8-tetrahydronaphthalen-2-yl]-1H-pyrazolo[3,4-b]pyridin-3-yl}-2,3,4,5-tetrahydro-1,4-benzoxazepin-5-one]"
5,< 100 nM,"O=C1NCCOc2cc(-c3n[nH]c4ncc(-c5ccc6c(c5)CC(N5CCCC5)CC6)cc34)ccc21 (stereo not drawn) [Example 3, 8-{5-[7-(Pyrrolidin-1-yl)-5,6,7,8-tetrahydronaphthalen-2-yl]-1H-pyrazolo[3,4-b]pyridin-3-yl}-2,3,4,5-tetrahydro-1,4-benzoxazepin-5-one]"
6,< 100 nM,"O=C1NCCOc2cc(-c3n[nH]c4ncc(-c5ccc6c(c5)CCC(N[C@H]5CCOC5)C6)cc34)ccc21 (stereo partly drawn) [Example 4, 8-[5-(6-{[(3S)—Oxolan-3-yl]amino}-5,6,7,8-tetrahydronaphthalen-2-yl)-1H-pyrazolo[3,4-b]pyridin-3-yl]-2,3,4,5-tetrahydro-1,4-benzoxazepin-5-one]"
7,< 100 nM,"O=C1NCCOc2cc(-c3n[nH]c4ncc(-c5ccc6c(c5)CCC(N[C@@H]5CCOC5)C6)cc34)ccc21 (stereo partly drawn) [Example 5, 8-[5-(6-{[(3R)—Oxolan-3-yl]amino}-5,6,7,8-tetrahydronaphthalen-2-yl)-1H-pyrazolo[3,4-b]pyridin-3-yl]-2,3,4,5-tetrahydro-1,4-benzoxazepin-5-one]"
8,< 100 nM,"C[C@@H]1CCCN1C1CCc2ccc(-c3cnc4[nH]nc(-c5cc(F)c6c(c5)OCCNC6=O)c4c3)cc2CC1 (stereo partly drawn) [Example 6, 6-Fluoro-8-(5-{7-[(2R)-2-methylpyrrolidin-1-yl]-6,7,8,9-tetrahydro-5H-benzo[7]annulen-2-yl}-1H-pyrazolo[3,4-b]pyridin-3-yl)-2,3,4,5-tetrahydro-1,4-benzoxazepin-5-one]"
9,< 100 nM,"O=C1NCCOc2cc(-c3n[nH]c4ncc(-c5ccc6c(c5)CCN(C5CCCC5)CC6)cc34)ccc21 [Example 7, 8-[5-(3-Cyclopentyl-2,3,4,5-tetrahydro-1H-3-benzazepin-7-yl)-1H-pyrazolo[3,4-b]pyridin-3-yl]-2,3,4,5-tetrahydro-1,4-benzoxazepin-5-one]"
10,< 100 nM,"O=C1NCCOc2cc(-c3n[nH]c4ncc(-c5ccc6c(c5)CCN(C5CCCC5)C6)cc34)ccc21 [Example 9, 8-(5-(2-Cyclopentyl-1,2,3,4-tetrahydroisoquinolin-6-yl)-1H-pyrazolo[3,4-b]pyridin-3-yl)-3,4-dihydrobenzo[f][1,4]oxazepin-5(2H)-one]"
11,< 100 nM,"O=C1NCCOc2cc(-c3n[nH]c4ncc(-c5ccc6c(c5)CN(C5CCCC5)CC6)cc34)ccc21 [Example 10, 8-(5-(2-Cyclopentyl-1,2,3,4-tetrahydroisoquinolin-7-yl)-1H-pyrazolo[3,4-b]pyridin-3-yl)-3,4-dihydrobenzo[f][1,4]oxazepin-5(2H)-one]"
12,< 100 nM,"O=C1NCCOc2cc(-c3n[nH]c4ncc(-c5ccc6c(c5)CCN(C5COC5)CC6)cc34)ccc21 [Example 11, 8-(5-(3-(Oxetan-3-yl)-2,3,4,5-tetrahydro-1H-benzo[d]azepin-7-yl)-1H-pyrazolo[3,4-b]pyridin-3-yl)-3,4-dihydrobenzo[f][1,4]oxazepin-5(2H)-one]"
13,< 100 nM,"O=C1NCCOc2cc(-c3n[nH]c4ncc(-c5ccc6c(c5)CCN(C5COC5)C6)cc34)ccc21 [Example 12, 8-(5-(2-(Oxetan-3-yl)-1,2,3,4-tetrahydroisoquinolin-6-yl)-1H-pyrazolo[3,4-b]pyridin-3-yl)-3,4-dihydrobenzo[f][1,4]oxazepin-5(2H)-one]"
14,< 100 nM,"COCCN1CCc2cc(-c3cnc4[nH]nc(-c5ccc6c(c5)OCCNC6=O)c4c3)ccc2C1 [Example 13, 8-(5-(2-(2-Methoxyethyl)-1,2,3,4-tetrahydroisoquinolin-6-yl)-1H-pyrazolo[3,4-b]pyridin-3-yl)-3,4-dihydrobenzo[f][1,4]oxazepin-5(2H)-one]"
15,< 100 nM,"COCCN1CCc2ccc(-c3cnc4[nH]nc(-c5ccc6c(c5)OCCNC6=O)c4c3)cc2CC1 [Example 15, 8-(5-(3-(2-Methoxyethyl)-2,3,4,5-tetrahydro-1H-benzo[d]azepin-7-yl)-1H-pyrazolo[3,4-b]pyridin-3-yl)-3,4-dihydrobenzo[f][1,4]oxazepin-5(2H)-one]"
16,< 100 nM,"CC(C)C(=O)N1CCc2ccc(-c3cnc4[nH]nc(-c5ccc6c(c5)OCCNC6=O)c4c3)cc2CC1 [Example 16, 8-{5-[3-(2-Methylpropanoyl)-2,3,4,5-tetrahydro-1H-3-benzazepin-7-yl]-1H-pyrazolo[3,4-b]pyridin-3-yl}-2,3,4,5-tetrahydro-1,4-benzoxazepin-5-one]"
17,< 100 nM,"O=C1NCCOc2cc(-c3n[nH]c4ncc(-c5ccc6c(c5)CCN(C(=O)C5CC5)CC6)cc34)ccc21 [Example 17, 8-[5-(3-Cyclopropanecarbonyl-2,3,4,5-tetrahydro-1H-3-benzazepin-7-yl)-1H-pyrazolo[3,4-b]pyridin-3-yl]-2,3,4,5-tetrahydro-1,4-benzoxazepin-5-one]"
18,< 100 nM,"CC(C)(O)C(=O)N1CCc2ccc(-c3cnc4[nH]nc(-c5ccc6c(c5)OCCNC6=O)c4c3)cc2CC1 [Example 19, 8-(5-(3-(2-Hydroxy-2-methylpropanoyl)-2,3,4,5-tetrahydro-1H-benzo[d]azepin-7-yl)-1H-pyrazolo[3,4-b]pyridin-3-yl)-3,4-dihydrobenzo[f][1,4]oxazepin-5(2H)-one]"
19,< 100 nM,"O=C1NCCOc2cc(-c3n[nH]c4ncc(-c5ccc6c(c5)CCN(C5CC5)CC6)cc34)ccc21 [Example 20, 8-(5-(3-Cyclopropyl-2,3,4,5-tetrahydro-1H-benzo[d]azepin-7-yl)-1H-pyrazolo[3,4-b]pyridin-3-yl)-3,4-dihydrobenzo[f][1,4]oxazepin-5(2H)-one]"
20,100 to 1000 nM,"O=C1NCCOc2cc(-c3n[nH]c4ncc(-c5ccc6c(c5)CCN(C5CC5)C6)cc34)ccc21 [Example 21, 8-(5-(2-Cyclopropyl-1,2,3,4-tetrahydroisoquinolin-6-yl)-1H-pyrazolo[3,4-b]pyridin-3-yl)-3,4-dihydrobenzo[f][1,4]oxazepin-5(2H)-one]"
21,< 100 nM,"CC1(N2CCCC2)CCc2ccc(-c3cnc4[nH]nc(-c5ccc6c(c5)OCCNC6=O)c4c3)cc2CC1 (stereo not drawn) [Example 22, 8-{5-[7-Methyl-7-(pyrrolidin-1-yl)-6,7,8,9-tetrahydro-5H-benzo[7]annulen-2-yl]-1H-pyrazolo[3,4-b]pyridin-3-yl}-2,3,4,5-tetrahydro-1,4-benzoxazepin-5-one]"
